Assay results taken from patent US20100317715A1, “METHODS FOR TREATING NEUROPSYCHIATRIC CONDITIONS” (priority 2007, published 2010).
Read-outs that look alike come from different tables or passages of the source.

Tests used:
[1] = target: PAK1 (Homo sapiens, UniProt Q13153); test: Competitive binding assay (phage-displayed kinase vs immobilized staurosporine bait), PAK1
[2] = target: PAK2 (Homo sapiens, UniProt Q13177); test: Competitive binding assay (phage-displayed kinase vs immobilized staurosporine bait), PAK2
[3] = target: PAK4 (Homo sapiens, UniProt O96013); test: Competitive binding assay (phage-displayed kinase vs immobilized staurosporine bait), PAK4; conditions: PAK Inhibitor Affinity Assay
[4] = target: PAK6 (Homo sapiens, UniProt Q9NQU5); test: biochemical; type: binding; conditions: PAK Inhibitor Affinity Assay
[5] = target: PAK7 (Homo sapiens, UniProt Q9P286); test: Competitive binding assay (phage-displayed kinase vs immobilized staurosporine bait), PAK7; conditions: PAK Inhibitor Affinity Assay
Sequence of PAK7 (Q9P286 whole entry): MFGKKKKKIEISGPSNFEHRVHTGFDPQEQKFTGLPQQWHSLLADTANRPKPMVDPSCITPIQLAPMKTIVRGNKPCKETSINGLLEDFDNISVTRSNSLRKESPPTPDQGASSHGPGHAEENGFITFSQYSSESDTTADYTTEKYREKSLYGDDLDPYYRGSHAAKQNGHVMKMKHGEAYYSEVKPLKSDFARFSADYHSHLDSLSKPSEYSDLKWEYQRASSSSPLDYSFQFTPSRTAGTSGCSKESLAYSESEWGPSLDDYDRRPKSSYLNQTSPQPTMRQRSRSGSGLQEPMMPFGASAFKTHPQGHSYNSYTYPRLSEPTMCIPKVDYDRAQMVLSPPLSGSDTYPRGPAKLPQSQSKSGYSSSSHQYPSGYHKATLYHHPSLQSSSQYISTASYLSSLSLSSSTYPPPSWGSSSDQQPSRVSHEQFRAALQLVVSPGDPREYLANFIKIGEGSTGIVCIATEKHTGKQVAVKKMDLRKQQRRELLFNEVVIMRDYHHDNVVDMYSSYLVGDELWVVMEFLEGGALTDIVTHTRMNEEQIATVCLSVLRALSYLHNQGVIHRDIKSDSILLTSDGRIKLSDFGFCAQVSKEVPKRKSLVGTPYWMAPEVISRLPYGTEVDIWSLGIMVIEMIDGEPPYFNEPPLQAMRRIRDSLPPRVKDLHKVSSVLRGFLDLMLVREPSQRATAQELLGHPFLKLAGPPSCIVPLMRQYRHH

Sequence of PAK2 (Q13177 whole entry): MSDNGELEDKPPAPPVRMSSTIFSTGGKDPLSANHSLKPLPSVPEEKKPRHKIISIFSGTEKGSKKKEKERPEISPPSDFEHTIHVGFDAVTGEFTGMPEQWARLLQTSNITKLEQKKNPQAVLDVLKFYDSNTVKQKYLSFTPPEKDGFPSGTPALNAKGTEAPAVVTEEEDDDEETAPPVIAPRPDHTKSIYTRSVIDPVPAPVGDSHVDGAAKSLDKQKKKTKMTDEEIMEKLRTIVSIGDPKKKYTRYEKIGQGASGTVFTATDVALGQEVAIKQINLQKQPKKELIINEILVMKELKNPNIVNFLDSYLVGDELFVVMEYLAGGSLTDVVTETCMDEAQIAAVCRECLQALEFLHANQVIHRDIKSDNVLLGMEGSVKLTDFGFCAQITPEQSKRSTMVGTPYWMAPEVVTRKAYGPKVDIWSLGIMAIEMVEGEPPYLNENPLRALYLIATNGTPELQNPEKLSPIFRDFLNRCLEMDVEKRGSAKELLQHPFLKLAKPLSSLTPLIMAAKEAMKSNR
Sequence of PAK1 (Q13153 whole entry): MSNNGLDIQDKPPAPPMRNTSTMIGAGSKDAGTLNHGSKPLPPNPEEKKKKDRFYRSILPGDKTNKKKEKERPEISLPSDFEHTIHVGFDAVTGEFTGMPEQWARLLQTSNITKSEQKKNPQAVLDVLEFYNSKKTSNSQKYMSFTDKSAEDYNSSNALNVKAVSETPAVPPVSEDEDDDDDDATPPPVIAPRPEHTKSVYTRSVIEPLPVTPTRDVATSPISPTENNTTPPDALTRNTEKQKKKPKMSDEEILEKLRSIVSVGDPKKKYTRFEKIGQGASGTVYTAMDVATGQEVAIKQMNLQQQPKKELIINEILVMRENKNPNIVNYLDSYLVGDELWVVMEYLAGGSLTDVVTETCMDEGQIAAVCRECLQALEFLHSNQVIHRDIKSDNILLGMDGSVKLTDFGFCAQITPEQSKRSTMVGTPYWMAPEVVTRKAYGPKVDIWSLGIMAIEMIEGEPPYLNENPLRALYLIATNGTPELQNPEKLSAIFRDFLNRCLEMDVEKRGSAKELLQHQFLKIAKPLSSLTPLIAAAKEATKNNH
Sequence of PAK6 (Q9NQU5 whole entry): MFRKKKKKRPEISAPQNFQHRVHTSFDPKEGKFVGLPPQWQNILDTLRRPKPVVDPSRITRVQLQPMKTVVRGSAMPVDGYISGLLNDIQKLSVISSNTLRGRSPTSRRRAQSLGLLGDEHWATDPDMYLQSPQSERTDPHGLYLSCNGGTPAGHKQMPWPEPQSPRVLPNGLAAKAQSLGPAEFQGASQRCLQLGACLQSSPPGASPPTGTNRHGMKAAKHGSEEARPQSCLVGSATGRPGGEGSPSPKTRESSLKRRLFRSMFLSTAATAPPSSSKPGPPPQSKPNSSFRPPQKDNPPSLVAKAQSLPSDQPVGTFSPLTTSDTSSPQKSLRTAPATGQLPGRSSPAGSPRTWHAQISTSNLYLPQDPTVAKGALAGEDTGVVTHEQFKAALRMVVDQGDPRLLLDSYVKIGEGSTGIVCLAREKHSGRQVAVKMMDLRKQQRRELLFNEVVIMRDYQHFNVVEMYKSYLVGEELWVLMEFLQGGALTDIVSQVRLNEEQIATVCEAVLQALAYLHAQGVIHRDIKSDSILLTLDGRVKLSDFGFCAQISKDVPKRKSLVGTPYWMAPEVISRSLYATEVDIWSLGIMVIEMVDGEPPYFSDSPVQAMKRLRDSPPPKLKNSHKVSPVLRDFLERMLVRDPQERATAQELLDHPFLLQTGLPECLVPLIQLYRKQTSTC
Sequence of PAK4 (O96013 whole entry): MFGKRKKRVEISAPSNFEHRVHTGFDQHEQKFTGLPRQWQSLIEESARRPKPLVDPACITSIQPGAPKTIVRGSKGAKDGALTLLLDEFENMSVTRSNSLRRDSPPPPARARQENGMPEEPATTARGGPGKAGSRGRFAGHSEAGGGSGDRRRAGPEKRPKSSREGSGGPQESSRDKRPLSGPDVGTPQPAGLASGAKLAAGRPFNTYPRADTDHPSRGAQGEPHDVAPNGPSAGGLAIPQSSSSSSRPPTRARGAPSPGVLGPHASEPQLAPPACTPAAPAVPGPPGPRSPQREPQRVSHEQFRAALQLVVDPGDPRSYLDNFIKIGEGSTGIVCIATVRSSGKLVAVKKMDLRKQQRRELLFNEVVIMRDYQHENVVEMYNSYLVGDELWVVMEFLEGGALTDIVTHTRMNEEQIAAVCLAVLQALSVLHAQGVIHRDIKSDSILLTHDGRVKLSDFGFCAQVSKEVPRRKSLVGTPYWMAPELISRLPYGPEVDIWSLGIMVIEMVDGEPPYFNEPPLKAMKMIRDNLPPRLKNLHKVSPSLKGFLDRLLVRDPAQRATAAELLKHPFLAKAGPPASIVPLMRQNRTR

SMILES | Kd ([1]; PAK Inhibitor Affinity Assay, read-out: Kd PAK1) [µM] | Kd ([2]; PAK Inhibitor Affinity Assay, read-out: Kd PAK2) [µM] | Kd [3] [µM] | Kd [4] [µM] | Kd [5] [µM] | Kd [1] [µM] | Kd [2] [µM]
CCOc1cc2ncc(C#N)c(Nc3ccc(F)c(Cl)c3)c2cc1NC(=O)/C=C/CN(C)C [EKB-569] | < 5 | ≥ 10 | ≥ 10 | ≥ 10 | ≥ 10 |  | 
Nc1nc(Nc2ccc(S(N)(=O)=O)cc2)nn1C(=O)c1c(F)cccc1F [JNJ-7706621] |  |  |  | < 5 |  | ≥ 10 | ≥ 10
